Laboratory results reported in publication PMC9601927 (Foods, 2022).

Tests used:
Caco-2 cell monolayer = assay: ANC transmembrane transport across Caco-2 cell monolayer (Transwell, HPLC); format: in vitro ADME
Method: In this work, we utilized and slightly modified a procedure from Zou et al. to perform ANC transport studies. Firstly, ANC commercial powder was pre-dissolved in ultra-pure water and phosphate-buffered solution (PBS, pH7.4) was used for FA-g-CS dissolving. Then, pre-warmed phosphate-buffered saline (PBS) was used to wash and equilibrate the Transwell. Subsequently, the transport buffer containing ANC was added to the basolateral (1.5 mL) or the apical (0.5 mL) side of the inserts, while the corresponding volume of transport buffer was added to the receiving container. Samples measuring 50 uL were taken after 1, 2, 3, and 4 h incubation, and the same amount of pre-warmed PBS was replenished immediately. The samples were treated with HCl and frozen until HPLC analysis. The ANC-absorption-enhancing studies with FA-g-CS across Caco-2 cells were conducted using a transport buffer containing FA-g-CS+ANC instead of ANC alone.
Transport efficiency (A→B (%)) was calculated according to the following formula: (concentrations of the compound at basolateral side overtime)/(concentrations of the compound at the apical side at zero hours) × 100. The apparent permeability coefficient (Papp) was defined as follows: Papp = (dQ/dt)(1/[AC0]); here, A represents the surface area of the Transwell, C0 represents the compound concentration added in the apical side, and the transport rate of the compound over time is denoted by dQ/dt.

GLUT2 = assay: Western blot of GLUT2 expression in Caco-2 cells after siRNA transfection and incubation; format: cell-based
Method: Firstly, the cells were washed twice with 1 mL of cold PBS and then lysed in 100 μL of ice-cold RIPA lysis buffer. Western blot analysis was performed following the previous method with minor modifications. Briefly, total protein samples were resolved by SDS-PAGE (8%, 10%, or 12%) and transferred to PVDF membranes blocked with 5% nonfat milk powder in TBST; these were then incubated with 8 μg of primary antibody at a dilution of 1:1000/500 (v/v) overnight at 4 °C. Detection was performed with 10 mL of ECL and oxidizing reagent and equal amounts of HRP-conjugated anti-mouse at a 1:5000 (v/v) dilution rate. To further illustrate the effect of FA-g-CS on the transmembrane transport of ANC, the Caco-2 cells were transfected with siRNA targeted to sGLT1 and GLUT2 (the optimal interference fragments screened by previous tests) and then incubated with FA-g-CS, ANC, or their combinations. Finally, the expressions of sGLT1 and GLUT2 were detected using a Western blot assay.

OC[C@H]1O[C@@H](Oc2cc3c(O)cc(O)cc3[o+]c2-c2ccc(O)c(O)c2)[C@H](O)[C@@H](O)[C@@H]1O [ANC, Cyanidin-3-glucoside]
Concentrations of ANC at the Basolateral Side (Caco-2 cell monolayer; apical ANC 0.05 ×10^−3 mg/mL, without FA-g-CS co-treatment, 1 h): 0.0001 ± 0.00001 a ×10^−3 mg/mL
Concentrations of ANC at the Basolateral Side (Caco-2 cell monolayer; apical ANC 0.05 ×10^−3 mg/mL, without FA-g-CS co-treatment, 2 h): 0.0003 ± 0.00001 b ×10^−3 mg/mL
Concentrations of ANC at the Basolateral Side (Caco-2 cell monolayer; apical ANC 0.05 ×10^−3 mg/mL, without FA-g-CS co-treatment, 3 h): 0.0004 ± 0.00001 c ×10^−3 mg/mL
Concentrations of ANC at the Basolateral Side (Caco-2 cell monolayer; apical ANC 0.05 ×10^−3 mg/mL, without FA-g-CS co-treatment, 4 h): 0.0004 ± 0.00001 c ×10^−3 mg/mL
Concentrations of ANC at the Basolateral Side (Caco-2 cell monolayer; apical ANC 0.10 ×10^−3 mg/mL, in presence of 0.05 × 10^−3 mg/mL FA-g-CS, 1 h): 0.0010 ± 0.0001 bc ×10^−3 mg/mL
Concentrations of ANC at the Basolateral Side (Caco-2 cell monolayer; apical ANC 0.10 ×10^−3 mg/mL, in presence of 0.05 × 10^−3 mg/mL FA-g-CS, 2 h): 0.0010 ± 0.0002 bc ×10^−3 mg/mL
Concentrations of ANC at the Basolateral Side (Caco-2 cell monolayer; apical ANC 0.10 ×10^−3 mg/mL, in presence of 0.05 × 10^−3 mg/mL FA-g-CS, 3 h): 0.0019 ± 0.0001 d ×10^−3 mg/mL
Concentrations of ANC at the Basolateral Side (Caco-2 cell monolayer; apical ANC 0.10 ×10^−3 mg/mL, in presence of 0.05 × 10^−3 mg/mL FA-g-CS, 4 h): 0.0021 ± 0.0002 d ×10^−3 mg/mL
Concentrations of ANC at the Basolateral Side (Caco-2 cell monolayer; apical ANC 0.10 ×10^−3 mg/mL, without FA-g-CS co-treatment, 1 h): 0.0004 ± 0.00002 a ×10^−3 mg/mL
Concentrations of ANC at the Basolateral Side (Caco-2 cell monolayer; apical ANC 0.10 ×10^−3 mg/mL, without FA-g-CS co-treatment, 2 h): 0.0008 ± 0.00001 b ×10^−3 mg/mL
Concentrations of ANC at the Basolateral Side (Caco-2 cell monolayer; apical ANC 0.10 ×10^−3 mg/mL, without FA-g-CS co-treatment, 3 h): 0.0009 ± 0.00001 b ×10^−3 mg/mL
Concentrations of ANC at the Basolateral Side (Caco-2 cell monolayer; apical ANC 0.10 ×10^−3 mg/mL, without FA-g-CS co-treatment, 4 h): 0.0012 ± 0.00002 c ×10^−3 mg/mL
Concentrations of ANC at the Basolateral Side (Caco-2 cell monolayer; apical ANC 0.15 ×10^−3 mg/mL, in presence of 0.05 × 10^−3 mg/mL FA-g-CS, 1 h): 0.0017 ± 0.0002 c ×10^−3 mg/mL
Concentrations of ANC at the Basolateral Side (Caco-2 cell monolayer; apical ANC 0.15 ×10^−3 mg/mL, in presence of 0.05 × 10^−3 mg/mL FA-g-CS, 2 h): 0.0025 ± 0.0002 d ×10^−3 mg/mL
Concentrations of ANC at the Basolateral Side (Caco-2 cell monolayer; apical ANC 0.15 ×10^−3 mg/mL, in presence of 0.05 × 10^−3 mg/mL FA-g-CS, 3 h): 0.0030 ± 0.0001 e ×10^−3 mg/mL
Concentrations of ANC at the Basolateral Side (Caco-2 cell monolayer; apical ANC 0.15 ×10^−3 mg/mL, in presence of 0.05 × 10^−3 mg/mL FA-g-CS, 4 h): 0.0035 ± 0.0001 f ×10^−3 mg/mL
Concentrations of ANC at the Basolateral Side (Caco-2 cell monolayer; apical ANC 0.15 ×10^−3 mg/mL, without FA-g-CS co-treatment, 1 h): 0.0006 ± 0.00001 a ×10^−3 mg/mL
Concentrations of ANC at the Basolateral Side (Caco-2 cell monolayer; apical ANC 0.15 ×10^−3 mg/mL, without FA-g-CS co-treatment, 2 h): 0.0009 ± 0.00002 b ×10^−3 mg/mL
Concentrations of ANC at the Basolateral Side (Caco-2 cell monolayer; apical ANC 0.15 ×10^−3 mg/mL, without FA-g-CS co-treatment, 3 h): 0.0010 ± 0.0003 b ×10^−3 mg/mL
Concentrations of ANC at the Basolateral Side (Caco-2 cell monolayer; apical ANC 0.15 ×10^−3 mg/mL, without FA-g-CS co-treatment, 4 h): 0.0018 ± 0.00001 c ×10^−3 mg/mL
Concentrations of ANC at the Basolateral Side (Caco-2 cell monolayer; apical ANC 0.20 ×10^−3 mg/mL, in presence of 0.05 × 10^−3 mg/mL FA-g-CS, 1 h): 0.0020 ± 0.0001 c ×10^−3 mg/mL
Concentrations of ANC at the Basolateral Side (Caco-2 cell monolayer; apical ANC 0.20 ×10^−3 mg/mL, in presence of 0.05 × 10^−3 mg/mL FA-g-CS, 2 h): 0.0023 ± 0.0002 d ×10^−3 mg/mL
Concentrations of ANC at the Basolateral Side (Caco-2 cell monolayer; apical ANC 0.20 ×10^−3 mg/mL, in presence of 0.05 × 10^−3 mg/mL FA-g-CS, 3 h): 0.0032 ± 0.0001 e ×10^−3 mg/mL
Concentrations of ANC at the Basolateral Side (Caco-2 cell monolayer; apical ANC 0.20 ×10^−3 mg/mL, in presence of 0.05 × 10^−3 mg/mL FA-g-CS, 4 h): 0.0033 ± 0.0001 e ×10^−3 mg/mL
Concentrations of ANC at the Basolateral Side (Caco-2 cell monolayer; apical ANC 0.20 ×10^−3 mg/mL, without FA-g-CS co-treatment, 1 h): 0.0007 ± 0.00001 a ×10^−3 mg/mL
Concentrations of ANC at the Basolateral Side (Caco-2 cell monolayer; apical ANC 0.20 ×10^−3 mg/mL, without FA-g-CS co-treatment, 2 h): 0.001 ± 0.0002 b ×10^−3 mg/mL
Concentrations of ANC at the Basolateral Side (Caco-2 cell monolayer; apical ANC 0.20 ×10^−3 mg/mL, without FA-g-CS co-treatment, 3 h): 0.0012 ± 0.0001 b ×10^−3 mg/mL
Concentrations of ANC at the Basolateral Side (Caco-2 cell monolayer; apical ANC 0.20 ×10^−3 mg/mL, without FA-g-CS co-treatment, 4 h): 0.0019 ± 0.0001 c ×10^−3 mg/mL
expression of GLUT2 compared with the blank (GLUT2; cells treated with nonrelated and scrambled siRNA): significantly elevated
expression level of GLUT2 compared with the blank control (GLUT2; cells treated with siRNA transfection): significantly increased
increased GLUT2 expression (GLUT2; siRNA-transfected Caco-2 cells incubated with compounds (abstract)): < 60%
